From US20250114374A1, “BCL-2 INHIBITORS” (Newave Pharmaceutical Inc., priority 2021, published 2025) come the findings set out here.

Counter-ions that a name gives are not always drawn.

One experiment relates to RS4; 11 with G101V mutation. Briefly: In vitro anti-proliferation assay (ATPlite luminescence) in BCL-2-dependent ALL cell line RS4;11 with G101V mutation. The format is cell-based. To be noted: Homo sapiens, RS4-11, 72 h; read-out: RS411-G101V IC50. Put shortly: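 RS4;11 G101V cells at about 1×10^4 per well were exposed to a range of compound concentrations for about 72 h in medium with 10% FBS. Cellular ATP was measured by ATPlite luminescence after lysis, and IC50 was derived from the dose-response.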
For orientation: In ATP-based viability assays light output follows the ATP content of the culture.
Regarding `COc1cc([C@H](C)N2CCN(C3CC4(CCN(c5ccc(C(=O)NS(=O)(=O)c6cc7c(c([N+](=O)[O-])c6)N[C@H](C6CCOCC6)CO7)c(N6c7cc8cc[nH]c8nc7O[C@H]7COCC[C@@H]76)c5)CC4)C3)[C@H](c3ccccc3C)C2)cnc1N1CCOC[C@@H]1C` [Example 193, 4-(2-((R)-4-((S)-1-(5-methoxy-6-((S)-3-methylmorpholino)pyridin-3-yl)ethyl)-2-(o-tolyl)piperazin-1-yl)-7-azaspiro[3.5]nonan-7-yl)-N-(((R)-5-nitro-3-(tetrahydro-2H-pyran-4-yl)-3,4-dihydro-2H-benzo[b][1,4]oxazin-7-yl)sulfonyl)-2-((5aS,9aR)-6,7,9,9a-tetrahydro-1H-pyrano[3,4-b]pyrrolo[3′,2′:5,6]pyrido[3,2-e][1,4]oxazin-5(5aH)-yl)benzamide], the IC50 came out at 73.3 nM.

Consider `Cc1ccccc1[C@@H]1CN(Cc2cnc(N3CCOC[C@@H]3C)c(OC(C)C)c2)CCN1C1CC2(CCN(c3ccc(C(=O)NS(=O)(=O)c4cc5c(c([N+](=O)[O-])c4)N[C@H](C4CCOCC4)CO5)c(N4c5cc6cc[nH]c6nc5O[C@H]5COCC[C@@H]54)c3)CC2)C1` [Example 190, 4-(2-((R)-4-((5-isopropoxy-6-((S)-3-methylmorpholino)pyridin-3-yl)methyl)-2-(o-tolyl)piperazin-1-yl)-7-azaspiro[3.5]nonan-7-yl)-N-(((R)-5-nitro-3-(tetrahydro-2H-pyran-4-yl)-3,4-dihydro-2H-benzo[b][1,4]oxazin-7-yl)sulfonyl)-2-((5aS,9aR)-6,7,9,9a-tetrahydro-1H-pyrano[3,4-b]pyrrolo[3′,2′:5,6]pyrido[3,2-e][1,4]oxazin-5(5aH)-yl)benzamide], for which the IC50 came to 11.1 nM.

Staying with this experiment, now noted: cellular anti-proliferative IC50, about 72 hours, medium with 10% FBS, ATPlite; hydrochloride; read-out: RS411-G101V IC50.
Consider `Cc1ccccc1[C@@H]1CN(C2CCC(C)(O)CC2)CCN1C1CC2(CCN(c3ccc(C(=O)NS(=O)(=O)c4ccc(NCC5CCC(C)(O)CC5)c([N+](=O)[O-])c4)c(N4c5cc6cc[nH]c6nc5O[C@H]5COCC[C@@H]54)c3)CC2)C1` (stereo partly drawn) [Example 113, 2-[(3R,8S)-2,5-dioxa-9,15,17-triazatetracyclo[8.7.0.0^{3,8}.0^{12,16}]heptadeca-1(10),11,13,16-tetraen-9-yl]-4-{2-[(2R)-2-(2-methylphenyl)-4-[(1s,4s)-4-hydroxy-4-methylcyclohexyl]piperazin-1-yl]-7-azaspiro[3.5]nonan-7-yl}-N-[3-nitro-4-({[(1r,4r)-4-hydroxy-4-methylcyclohexyl]methyl}amino)benzenesulfonyl]benzamide hydrochloride], for which the IC50 stood at 8.2 nM.

The same experiment, now with this note: cellular anti-proliferative IC50, about 72 hours, medium with 10% FBS, ATPlite; read-out: RS411-G101V IC50.
On to `CC(C)Oc1ccccc1[C@H]1CN(Cc2cnc(N3CCOCC3)c(OC(C)C)c2)CCN1C1CC2(CCN(c3ccc(C(=O)NS(=O)(=O)c4ccc(NCC5CCC(C)(O)CC5)c([N+](=O)[O-])c4)c(N4c5cc6cc[nH]c6nc5O[C@H]5COCC[C@@H]54)c3)CC2)C1` (stereo partly drawn) [Example 137, 2-[(3R,8S)-2,5-dioxa-9,15,17-triazatetracyclo[8.7.0.0^{3,8}.0^{12,16}]heptadeca-1(10),11,13,16-tetraen-9-yl]-4-{2-[(2S)-4-{[5-isopropoxy-6-(morpholin-4-yl)pyridin-3-yl]methyl}-2-(2-isopropoxyphenyl)piperazin-1-yl]-7-azaspiro[3.5]nonan-7-yl}-N-[3-nitro-4-({[(1r,4r)-4-hydroxy-4-methylcyclohexyl]methyl}amino)benzenesulfonyl]benzamide], for which the IC50 was 41.5 nM.

Consider `Cc1ccccc1[C@@H]1CN(C2CCC3(CCOCC3)CC2)CCN1C1CC2(CCN(c3ccc(C(=O)NS(=O)(=O)c4cc5c(c([N+](=O)[O-])c4)N[C@H](C4CCOCC4)CO5)c(N4c5cc6cc[nH]c6nc5O[C@H]5COCC[C@@H]54)c3)CC2)C1` (stereo partly drawn) [Example 202, 2-[(3R,8S)-2,5-dioxa-9,15,17-triazatetracyclo[8.7.0.0^{3,8}.0^{12,16}]heptadeca-1(10),11,13,16-tetraen-9-yl]-4-{2-[(2R)-2-(2-methylphenyl)-4-{3-oxaspiro[5.5]undecan-9-yl}piperazin-1-yl]-7-azaspiro[3.5]nonan-7-yl}-N-[(3R)-5-nitro-3-(oxan-4-yl)-3,4-dihydro-2H-1,4-benzoxazin-7-ylsulfonyl]benzamide], for which the half-maximal inhibitory concentration (IC50) turned out to be 15.1 nM.

Turning to `COc1cc(CN2CCN(C3CC4(CCN(c5ccc(C(=O)NS(=O)(=O)c6cc7c(c([N+](=O)[O-])c6)N[C@H](C6CCOCC6)CO7)c(N6c7cc8cc[nH]c8nc7O[C@H]7COCC[C@@H]76)c5)CC4)C3)[C@H](c3ccccc3C)C2)cnc1N1CCOC[C@H]1C` [Example 188, 2-[(3R,8S)-2,5-dioxa-9,15,17-triazatetracyclo[8.7.0.0^{3,8}.0^{12,16}]heptadeca-1(10),11,13,16-tetraen-9-yl]-4-{2-[(2R)-4-({5-methoxy-6-[(3R)-3-methylmorpholin-4-yl]pyridin-3-yl}methyl)-2-(2-methylphenyl)piperazin-1-yl]-7-azaspiro[3.5]nonan-7-yl}-N-[(3R)-5-nitro-3-(oxan-4-yl)-3,4-dihydro-2H-1,4-benzoxazin-7-ylsulfonyl]benzamide], the IC50 turned out to be 11.1 nM.

Regarding `CC(C)Oc1ccccc1[C@H]1CN(C2CCC(N3CCOC[C@H]3C)CC2)CCN1C1CC2(CCN(c3ccc(C(=O)NS(=O)(=O)c4ccc(NCC5CCC(C)(O)CC5)c([N+](=O)[O-])c4)c(N4c5cc6cc[nH]c6nc5O[C@H]5COCC[C@@H]54)c3)CC2)C1` (stereo partly drawn) [Example 161, N-((4-((((1r,4r)-4-hydroxy-4-methylcyclohexyl)methyl)amino)-3-nitrophenyl)sulfonyl)-4-(2-((S)-2-(2-isopropoxyphenyl)-4-((1R,4S)-4-((R)-3-methylmorpholino)cyclohexyl)piperazin-1-yl)-7-azaspiro[3.5]nonan-7-yl)-2-((5aS,9aR)-6,7,9,9a-tetrahydro-1H-pyrano[3,4-b]pyrrolo[3′,2′:5,6]pyrido[3,2-e][1,4]oxazin-5(5aH)-yl)benzamide], the IC50 was determined as 18.1 nM.

Turning to `CC(C)Oc1ccccc1[C@@H]1CN(Cc2ccc(F)c(F)c2)CCN1C1CC2(CCN(c3nc(N4c5cc6cc[nH]c6nc5O[C@H]5COCC[C@@H]54)c(C(=O)NS(=O)(=O)c4cc5c(c([N+](=O)[O-])c4)N[C@H](C4CCOCC4)CO5)cc3F)CC2)C1` [Example 235, 6-{2-[(2R)-4-[(3,4-difluorophenyl)methyl]-2-(2-isopropoxyphenyl)piperazin-1-yl]-7-azaspiro[3.5]nonan-7-yl}-2-[(3R,8S)-2,5-dioxa-9,15,17-triazatetracyclo[8.7.0.0^{3,8}.0^{12,16}]heptadeca-1(10),11,13,16-tetraen-9-yl]-5-fluoro-N-[(3R)-5-nitro-3-(oxan-4-yl)-3,4-dihydro-2H-1,4-benzoxazin-7-ylsulfonyl]pyridine-3-carboxamide], the IC50 amounted to 2270 nM.

For `COc1cc(CN2CCN(C3CC4(CCN(c5ccc(C(=O)NS(=O)(=O)c6ccc(NCC7CCC(C)(O)CC7)c([N+](=O)[O-])c6)c(N6c7cc8cc[nH]c8nc7O[C@H]7COCC[C@@H]76)c5)CC4)C3)[C@@H](c3ccccc3OC(C)C)C2)cnc1N1CCOC[C@H]1C` (stereo partly drawn) [Example 111, 2-[(3R,8S)-2,5-dioxa-9,15,17-triazatetracyclo[8.7.0.0^{3,8}.0^{12,16}]heptadeca-1(10),11,13,16-tetraen-9-yl]-4-{2-[(2S)-2-(2-isopropoxyphenyl)-4-({5-methoxy-6-[(3R)-3-methylmorpholin-4-yl]pyridin-3-yl}methyl)piperazin-1-yl]-7-azaspiro[3.5]nonan-7-yl}-N-[3-nitro-4-({[(1r,4r)-4-hydroxy-4-methylcyclohexyl]methyl}amino)benzenesulfonyl]benzamide], the IC50 worked out at 10.7 nM.

On to `CC(C)Oc1ccccc1[C@@H]1CN(Cc2ccc(F)c(F)c2)CCN1C1CC2(CCN(c3ccc(C(=O)NS(=O)(=O)c4cc5c(c([N+](=O)[O-])c4)N[C@H](C4CCOCC4)CO5)c(N4c5cc6cc[nH]c6nc5O[C@H]5CCOC[C@@H]54)c3)CC2)C1` [Example 240, 4-{2-[(2R)-4-[(3,4-difluorophenyl)methyl]-2-(2-isopropoxyphenyl)piperazin-1-yl]-7-azaspiro[3.5]nonan-7-yl}-2-[(3S,8S)-5,9-dioxa-2,11,13-triazatetracyclo[8.7.0.0^{3,8}.0^{12,16}]heptadeca-1(10),11,14,16-tetraen-2-yl]-N-[(3R)-5-nitro-3-(oxan-4-yl)-3,4-dihydro-2H-1,4-benzoxazin-7-ylsulfonyl]benzamide], for which the IC50 came to 6.94 nM.

Take `COc1cc(CN2CCN([C@H]3CC4(CCN(c5ccc(C(=O)NS(=O)(=O)c6ccc(NCC7CCC(C)(O)CC7)c([N+](=O)[O-])c6)c(N6c7cc8cc[nH]c8nc7O[C@H]7COCC[C@@H]76)c5)CC4)[C@@H]3C)[C@H](c3ccccc3C)C2)cnc1N1CCOCC1` (stereo partly drawn) [Example 141, 2-[(3R,8S)-2,5-dioxa-9,15,17-triazatetracyclo[8.7.0.0^{3,8}.0^{12,16}]heptadeca-1(10),11,13,16-tetraen-9-yl]-4-[(1S,2S)-2-[(2R)-4-{[5-methoxy-6-(morpholin-4-yl)pyridin-3-yl]methyl}-2-(2-methylphenyl)piperazin-1-yl]-1-methyl-7-azaspiro[3.5]nonan-7-yl]-N-[3-nitro-4-({[(1r,4r)-4-hydroxy-4-methylcyclohexyl]methyl}amino)benzenesulfonyl]benzamide]: the IC50 is 35.9 nM.

With `Cc1ccccc1[C@@H]1CN(C2CCN(C3CCOCC3)CC2)CCN1C1CC2(CCN(c3ccc(C(=O)NS(=O)(=O)c4cc5c(c([N+](=O)[O-])c4)N[C@H](C4CCOCC4)CO5)c(N4c5cc6cc[nH]c6nc5O[C@H]5COCC[C@@H]54)c3)CC2)C1` [Example 201, 2-[(3R,8S)-2,5-dioxa-9,15,17-triazatetracyclo[8.7.0.0^{3,8}.0^{12,16}]heptadeca-1(10),11,13,16-tetraen-9-yl]-4-{2-[(2R)-2-(2-methylphenyl)-4-[1-(oxan-4-yl)piperidin-4-yl]piperazin-1-yl]-7-azaspiro[3.5]nonan-7-yl}-N-[(3R)-5-nitro-3-(oxan-4-yl)-3,4-dihydro-2H-1,4-benzoxazin-7-ylsulfonyl]benzamide], the IC50 was found to be 232 nM.

A word on the IC50: it is the midpoint of a concentration-inhibition curve.
